Results taken from the NIST ThermoML archive (doi:10.1016/j.fluid.2011.09.037).

Test: osmotic coefficient (dimensionless); mn = molality of the nth substance listed, in mol/kg
Details: 323.15 K, 101 kPa, Liquid, vapor pressure osmometer

CCCCO [butan-1-ol] + CCCCCC[n+]1ccn(C)c1.O=S(=O)([N-]S(=O)(=O)C(F)(F)F)C(F)(F)F
Details	osmotic coefficient
m1 = 0.0466	0.746
m1 = 0.0832	0.604
m1 = 0.1034	0.574
m1 = 0.1973	0.461
m1 = 0.2989	0.411
m1 = 0.3965	0.362
m1 = 0.4907	0.343
m1 = 0.6881	0.295
m1 = 0.9952	0.245
m1 = 1.304	0.212
m1 = 1.685	0.2
m1 = 2.109	0.18
m1 = 2.479	0.172
m1 = 2.947	0.161
m1 = 3.291	0.162

CCC(C)O (configuration not stated) [butan-2-ol] + CCCCCC[n+]1ccn(C)c1.O=S(=O)([N-]S(=O)(=O)C(F)(F)F)C(F)(F)F
Details	osmotic coefficient
m1 = 0.0478	0.834
m1 = 0.076	0.769
m1 = 0.1019	0.659
m1 = 0.2141	0.532
m1 = 0.3112	0.443
m1 = 0.4257	0.403
m1 = 0.5354	0.369
m1 = 0.72	0.324
m1 = 1.008	0.285
m1 = 1.311	0.251
m1 = 1.722	0.231
m1 = 2.107	0.219
m1 = 2.477	0.214
m1 = 2.87	0.195

CCCCCO [pentan-1-ol] + CCCCCC[n+]1ccn(C)c1.O=S(=O)([N-]S(=O)(=O)C(F)(F)F)C(F)(F)F
Details	osmotic coefficient
m1 = 0.0502	0.467
m1 = 0.0781	0.411
m1 = 0.1123	0.372
m1 = 0.1977	0.313
m1 = 0.3009	0.267
m1 = 0.4054	0.24
m1 = 0.4903	0.214
m1 = 0.8026	0.178
m1 = 1.11	0.163
m1 = 1.368	0.149
m1 = 1.723	0.12
m1 = 2.211	0.095
m1 = 2.657	0.096
m1 = 3.231	0.091

CCCO [propan-1-ol] + CCCCCC[n+]1ccn(C)c1.O=S(=O)([N-]S(=O)(=O)C(F)(F)F)C(F)(F)F
Details	osmotic coefficient
m1 = 0.0281	0.906
m1 = 0.0539	0.866
m1 = 0.081	0.797
m1 = 0.1046	0.716
m1 = 0.2004	0.621
m1 = 0.3018	0.523
m1 = 0.4154	0.46
m1 = 0.519	0.445
m1 = 0.8326	0.386
m1 = 1.14	0.342
m1 = 1.432	0.316
m1 = 1.742	0.306
m1 = 2.247	0.288
m1 = 2.739	0.265
m1 = 3.188	0.247

CC(C)O [propan-2-ol] + CCCCCC[n+]1ccn(C)c1.O=S(=O)([N-]S(=O)(=O)C(F)(F)F)C(F)(F)F
Details	osmotic coefficient
m1 = 0.0549	0.902
m1 = 0.0805	0.876
m1 = 0.0992	0.841
m1 = 0.2037	0.678
m1 = 0.3092	0.572
m1 = 0.4087	0.524
m1 = 0.5171	0.485
m1 = 0.8189	0.429
m1 = 1.111	0.387
m1 = 1.405	0.355
m1 = 1.712	0.321
m1 = 2.193	0.314
m1 = 2.655	0.304
m1 = 3.207	0.294
